Measurements: the SangsterLogP compilation

Experiment: method code SF-HPLC, from DOI: 10.1248/cpb.46.274

With O=C(C=Cc1cccc([N+](=O)[O-])c1)C(F)(F)F the logP was 2.66.
Work on CC(=O)/C=C/c1cccc(C(F)(F)F)c1 yielded a logP of 3.03.
In the case of COc1ccc(C=CC(=O)C(F)(F)F)cc1, the logP is reported as 3.33.
Compound CC(=O)/C=C/c1ccc(Cl)cc1 has a logP of 2.8.
O=C(C=Cc1ccc(Cl)cc1)C(F)(F)F showed a logP of 3.63.
Compound CC(=O)C=Cc1ccc(OC(C)=O)cc1 has a logP of 1.63.
CC(=O)/C=C/c1ccc(N(C)C)cc1 showed a logP of 2.66.
Work on O=C(C=Cc1ccccc1)C(F)(F)F yielded a logP of 3.01.
With CC(=O)C=Cc1ccc(F)cc1 the logP was 2.22.
For COc1ccc(/C=C/C(C)=O)cc1, the logP was 2.25.
With CC(=O)/C=C/c1ccc(O)cc1 the logP was 1.86.
In the case of COc1cccc(C=CC(=O)C(F)(F)F)c1, the logP is reported as 3.05.
For CC(=O)/C=C/c1ccccc1Cl, the logP was 2.85.
CC(=O)/C=C/c1cccc([N+](=O)[O-])c1 showed a logP of 1.88.
Work on N#Cc1cccc(/C=C/C(=O)C(F)(F)F)c1 yielded a logP of 2.45.
In the case of CC(=O)/C=C/c1cccc(C)c1, the logP is reported as 2.68.
For CC(=O)/C=C/c1ccc(C(F)(F)F)cc1, the logP was 3.13.
O=C(C=Cc1ccccc1Cl)C(F)(F)F showed a logP of 3.5.
With CC(=O)/C=C/c1cccc(Cl)c1 the logP was 2.81.
For CC(=O)C=Cc1cccc(C#N)c1, the logP was 1.59.
In the case of CC(=O)/C=C/c1cccc(Br)c1, the logP is reported as 3.02.
In the case of CC(=O)C=Cc1cccc(F)c1, the logP is reported as 2.25.
Work on CCc1ccc(/C=C/C(C)=O)cc1 yielded a logP of 3.26.
Compound COc1cccc(/C=C/C(C)=O)c1 has a logP of 2.27.
CC(=O)/C=C/c1ccccc1C gave a logP of 2.6.
COc1ccccc1/C=C/C(C)=O gave a logP of 2.42.
In the case of CC(=O)/C=C/c1ccccc1O, the logP is reported as 2.19.
In the case of O=C(C=Cc1cccc(Cl)c1)C(F)(F)F, the logP is reported as 3.58.
With CC(=O)C=Cc1ccc(C#N)cc1 the logP was 1.64.
COc1ccccc1C=CC(=O)C(F)(F)F showed a logP of 3.39.
For CC(=O)C=Cc1ccc(Br)cc1, the logP was 3.03.
With N#Cc1ccc(C=CC(=O)C(F)(F)F)cc1 the logP was 2.42.
CC(=O)/C=C/c1ccccc1F gave a logP of 2.34.
With CC(=O)C=Cc1ccc(C)cc1 the logP was 2.65.
With CCOc1ccc(C=CC(C)=O)cc1 the logP was 2.73.
With CC(=O)/C=C/c1ccccc1C(F)(F)F the logP was 3.14.
